In patent publication US8642642B2, “Heterocyclic arylsulphones suitable for treating disorders that respond to modulation of the serotonin 5HT6 receptor” (Abbott Laboratories, priority 2006, dated 2014):
Where a name gives a salt, the structure may show the parent alone.

Key:
[1] = target: T1, human 5-HT6 receptor (Homo sapiens, UniProt P50406); test: Human 5-HT6 receptor binding assay (3H-LSD displacement); settings: membranes from HEK-293 cells, 2 nM 3H-LSD
T1 construct: expressed in transfected cells
Protocol: (§1) The substance to be tested was either dissolved in methanol/Chremophor® (BASF-AG) or in dimethyl sulfoxide and then diluted with water to the desired concentration.
The compounds were dissolved in a concentration of 10^−2 M or 10^−3 M in DMSO. Further dilutions were performed in incubation buffer.
The procedure for the binding assay was based on the method of Monsma et al. (1993) Mol Pharmacol 43: 320-327. The binding reaction was carried out in a total volume of 0.250 ml for 60 min at 37° C. Membranes from HEK-293 cells stably expressing the human 5-HT6 receptor were incubated with 2 nM ^3H-LSD in the presence or absence of various concentrations of test compound for 60 min at 37° C. Non-specific binding was defined with 100 μM Serotonin (5-HT). Assays were performed in duplicate. Bound and free radioligand was separated by filtration and bound radioactivity determined by liquid scintillation counting.
The specific ligand binding to the receptors was defined as the difference between the total binding and the nonspecific binding determined in the presence of an excess of unlabelled 5-HT. The results are expressed as a percent of control specific binding obtained in the presence of compound. The IC50 values (concentration causing a half-maximal inhibition of control specific binding) and Hill coefficients (nH) were determined by non-linear regression analysis of the competition curves using Hill equation curve fitting.
The inhibition constants (Ki) were calculated from the Cheng Prusoff equation (Ki=IC50/(1+(L/KD)), where L=concentration of radioligand in the assay, and KD=affinity of the radioligand for the receptor).

[2] = target: T2, human dopamine D3 receptors (Homo sapiens, UniProt P35462); test: Dopamine D3 receptor binding ([125I]-iodosulpride); settings: for Ki: membranes from HEK-293 cells, 0.1 nM [125I]-iodosulpride; for Ki(D2)/Ki(D3): ratio of receptor binding constants, D2L versus D3
T2 construct: expressed in transfected cells
Protocol: as §1
Each assay mixture was run in triplicate.
The incubation buffer contained 50 mM tris, 120 mM NaCl, 5 mM KCl, 2 mM CaCl2, 2 mM MgCl2 and 0.1% bovine serum albumin, 10 μM quinolone and 0.1% ascorbic acid (prepared fresh daily). The buffer was adjusted to pH 7.4 with HCl.
After having been incubated at 25° C. for 60 minutes, the assay mixtures were filtered through a Whatman GF/B glass fiber filter under vacuum using a cell collecting device. The filters were transferred to scintillation viols using a filter transfer system. After 4 ml of Ultima Gold® (Packard) have been added, the samples were shaken for one hour and the radioactivity was then counted in a Beta-Counter (Packard, Tricarb 2000 or 2200CA). The cpm values were converted into dpm using a standard quench series and the program belonging to the instrument.
The inhibition curves were analyzed by means of iterative nonlinear regression analysis using the Statistical Analysis System (SAS) which is similar to the “LIGAND” program described by Munson and Rodbard.

T2 sequence (P35462 whole entry): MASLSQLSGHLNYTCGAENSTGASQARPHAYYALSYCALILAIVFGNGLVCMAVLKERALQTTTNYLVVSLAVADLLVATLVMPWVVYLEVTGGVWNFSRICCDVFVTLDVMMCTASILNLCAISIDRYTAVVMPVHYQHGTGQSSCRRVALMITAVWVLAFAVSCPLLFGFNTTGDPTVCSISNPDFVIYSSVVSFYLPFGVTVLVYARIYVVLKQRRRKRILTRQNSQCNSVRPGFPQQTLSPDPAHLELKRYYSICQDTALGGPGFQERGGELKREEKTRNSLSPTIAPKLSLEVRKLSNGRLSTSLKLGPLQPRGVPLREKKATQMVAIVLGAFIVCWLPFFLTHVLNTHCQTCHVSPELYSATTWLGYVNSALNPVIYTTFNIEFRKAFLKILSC
T1 sequence (P50406 whole entry): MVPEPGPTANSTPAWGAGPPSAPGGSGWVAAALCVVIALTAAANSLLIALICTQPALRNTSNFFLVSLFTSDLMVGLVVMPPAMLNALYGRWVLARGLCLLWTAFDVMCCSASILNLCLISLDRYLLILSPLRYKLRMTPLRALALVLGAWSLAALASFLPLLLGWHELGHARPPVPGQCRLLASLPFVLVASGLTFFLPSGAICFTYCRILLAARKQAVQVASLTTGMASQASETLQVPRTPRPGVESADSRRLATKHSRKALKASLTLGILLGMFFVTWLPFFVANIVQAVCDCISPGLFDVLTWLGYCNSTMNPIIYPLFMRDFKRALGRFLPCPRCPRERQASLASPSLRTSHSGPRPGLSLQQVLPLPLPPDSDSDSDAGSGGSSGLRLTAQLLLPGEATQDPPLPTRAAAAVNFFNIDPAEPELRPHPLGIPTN

Row | Compound | Ki [1] [nM] | Ki [2] [nM] | Ki(D2)/Ki(D3) [2]
1 | 3-Trifluoromethyl-N-[4-((S)-1-propyl-pyrrolidin-3-yl)-phenyl]-benzenesulfonamide [Example 4] | 1 to 10 | 10 to 50 | + (between 10 and 50)
2 | CCCN1C[C@@H](CF)[C@H](c2ccc(NS(=O)(=O)c3cccc(C(F)(F)F)c3)cc2)C1 (relative stereo) [Example 95, N-[4-(trans-4-Fluoromethyl-1-propyl-pyrrolidin-3-yl)-phenyl]-3-trifluoromethyl-benzenesulfonamide] | 1 to 10 | 10 to 50 | + (between 10 and 50)
3 | CCCN1CC[C@@H](c2ccc(NS(=O)(=O)c3cc(F)c(Br)cc3F)cc2)C1 [Example 3, 4-Bromo-3,6-difluoro-N-[4-((S)-1-propyl-pyrrolidin-3-yl)-phenyl]-benzenesulfonamide] | 10 to 50 | 1 to 10 | +++ (between 100 and 150)
4 | CCCN1CC[C@@H](c2ccc(NS(=O)(=O)c3ccc(Br)s3)cc2)C1.Cl [Example 59, 5-Bromo-thiophene-2-sulfonic acid [4-((S)-1-propyl-pyrrolidin-3-yl)-phenyl]-amide hydrochloride] | 1 to 10 | 1 to 10 | +++ (between 100 and 150)
5 | CCCc1ccc(S(=O)(=O)Nc2ccc([C@@H]3CCN(CCC)C3)cc2)s1 [Example 60, 5-Propyl-thiophene-2-sulfonic acid [4-((S)-1-propyl-pyrrolidin-3-yl)-phenyl]-amide] | 10 to 50 | < 1 | + (between 10 and 50)
6 | CCCN1CC[C@@H](c2ccc(NS(=O)(=O)c3ccc(OC(F)(F)F)c(Br)c3)cc2)C1.Cl [Example 61, 3-Bromo-N-[4-((S)-1-propyl-pyrrolidin-3-yl)-phenyl]-4-trifluoromethoxy-benzenesulfonamide hydrochloride] | 10 to 50 | 1 to 10 | ++ (between 50 and 100)
7 | CCCN1CC[C@@H](c2ccc(NS(=O)(=O)c3ccc(Cl)s3)cc2)C1 [Example 62, 5-Chloro-thiophene-2-sulfonic acid [4-((S)-1-propyl-pyrrolidin-3-yl)-phenyl]-amide] | 1 to 10 | 1 to 10 | ++++ (>150)
8 | CCCN1CC[C@@H](c2ccc(NS(=O)(=O)c3ccc(-c4ccccn4)s3)cc2)C1.Cl [Example 66, 5-Pyridin-2-yl-thiophene-2-sulfonic acid [4-((S)-1-propyl-pyrrolidin-3-yl)-phenyl]-amide hydrochloride] | 10 to 50 | < 1 | +++ (between 100 and 150)
9 | O=S(=O)(Nc1cccc([C@@H]2CCNC2)c1)c1cccc(C(F)(F)F)c1 [Example 67, N-[3-((S)-pyrrolidin-3-yl)-phenyl]-3-trifluoromethyl-benzene sulfonamide] | 1 to 10 | – | –
10 | Cl.O=S(=O)(Nc1ccc([C@@H]2CCNC2)cc1)c1ccc(-c2ccccn2)s1 [Example 69, 5-Pyridin-2-yl-thiophene-2-sulfonic acid ((S)-4-pyrrolidin-3-yl-phenyl)-amide hydrochloride] | 10 to 50 | 10 to 50 | +++ (between 100 and 150)
11 | CCCN1CC[C@@H](c2ccc(NS(=O)(=O)c3cccc(Br)c3)cc2)C1 [Example 70, 3-Bromo-N-[4-((S)-1-propyl-pyrrolidin-3-yl)-phenyl]-benzenesulfonamide] | 1 to 10 | 1 to 10 | ++ (between 50 and 100)
12 | CCCN1CC[C@@H](c2ccc(NS(=O)(=O)c3cccc(N4CCCC4)c3)cc2)C1 [Example 71, N-[4-((S)-1-Propyl-pyrrolidin-3-yl)-phenyl]-3-pyrrolidin-1-yl-benzenesulfonamide] | 1 to 10 | 10 to 50 | + (between 10 and 50)
13 | CCCN1CC[C@@H](c2ccc(NS(=O)(=O)c3ccc(-n4cccn4)s3)cc2)C1.Cl [Example 73, 5-Pyrazol-1-yl-thiophene-2-sulfonic acid [4-((S)-1-propyl-pyrrolidin-3-yl)-phenyl]-amide hydrochloride] | 10 to 50 | 1 to 10 | ++ (between 50 and 100)
14 | CCCN1CC[C@@H](c2ccc(NS(=O)(=O)c3cc(Cl)c(Cl)s3)cc2)C1.Cl [Example 74, 4,5-Dichloro-thiophene-2-sulfonic acid [4-((S)-1-propyl-pyrrolidin-3-yl)-phenyl]-amide hydrochloride] | 1 to 10 | 10 to 50 | ++ (between 50 and 100)
15 | CCCN1CC[C@@H](c2ccc(NS(=O)(=O)c3ccc(-c4csnn4)s3)cc2)C1.Cl [Example 75, 5-[1,2,3]Thiadiazol-4-yl-thiophene-2-sulfonic acid [4-((S)-1-propyl-pyrrolidin-3-yl)-phenyl]-amide hydrochloride] | 10 to 50 | 10 to 50 | + (between 10 and 50)
16 | CCCN1CC[C@@H](c2ccc(NS(=O)(=O)c3ccc(C(F)(F)F)s3)cc2)C1.Cl [Example 76, 5-Trifluoromethyl-thiophene-2-sulfonic acid [4-((S)-1-propyl-pyrrolidin-3-yl)-phenyl]-amide hydrochloride] | 1 to 10 | 1 to 10 | +++ (between 100 and 150)
17 | CN1CC[C@@H](c2cccc(NS(=O)(=O)c3cccc(C(F)(F)F)c3)c2)C1 [Example 77, N-[3-((S)-1-Methyl-pyrrolidin-3-yl)-phenyl]-3-trifluoromethyl-benzenesulfonamide hydrochloride] | 1 to 10 | – | –
18 | CCCN1CC[C@@H](c2ccc(NS(=O)(=O)c3ccc(-c4csc(C)n4)s3)cc2)C1 [Example 78, 5-(2-Methyl-thiazol-4-yl)-thiophene-2-sulfonic acid [4-((S)-1-propyl-pyrrolidin-3-yl)-phenyl]-amide] | 1 to 10 | < 1 | –
19 | CCCN1CC[C@@H](c2ccc(NS(=O)(=O)c3ccc(F)c(Br)c3F)cc2)C1.Cl [Example 86, 3-Bromo-2,4-difluoro-N-[4-((S)-1-propyl-pyrrolidin-3-yl)-phenyl]-benzenesulfonamide hydrochloride] | 10 to 50 | 1 to 10 | ++ (between 50 and 100)
20 | CCCN1CC[C@@H](c2ccc(NS(=O)(=O)c3cc(C(F)(F)F)ccc3OC)cc2)C1 [Example 91, 2-Methoxy-N-[4-((S)-1-propyl-pyrrolidin-3-yl)-phenyl]-5-trifluoromethyl-benzenesulfonamide] | 10 to 50 | – | –
21 | CCCN1C[C@H](c2ccc(NS(=O)(=O)c3cccc(C(F)(F)F)c3)cc2)C[C@H]1C [Example 94, N-[4-((3S,5R)-5-Methyl-1-propyl-pyrrolidin-3-yl)-phenyl]-3-trifluoromethyl-benzenesulfonamide hydrochloride] | 10 to 50 | – | –
22 | O=S(=O)(Nc1ccc([C@@H]2CCNC2)cc1)c1cccc(C(F)(F)F)c1 [Example 101, N—((S)-4-Pyrrolidin-3-yl-phenyl)-3-trifluoromethyl-benzenesulfonamide] | 10 to 50 | – | –
23 | CCCN1CC[C@@H](c2ccc(NS(=O)(=O)c3cc(C(F)(F)F)ccc3F)cc2)C1 [Example 104, 2-Fluoro-N-[4-((S)-1-propyl-pyrrolidin-3-yl)-phenyl]-5-trifluoromethyl-benzenesulfonamide] | 10 to 50 | – | –
